This note sets out measurements from patent publication US12428422B2, “Purine derivatives as SIK-3 inhibitors” (RHIZEN PHARMACEUTICALS AG, priority 2020, dated 2025).

Each structure is given as a SMILES string.

What all share (format): cell-based
One experiment concerns HuT-78 cell lines. Nature of the experiment: MTT cell growth inhibition, combination with romidepsin, HuT-78. To be noted: combined with romedepsin, 72 hrs. Here is the method:
Assay 5: Combination of Compound M1 with Standard Agents in HuT-78 Cell Lines
Day 0 • The HuT-78 cells were pelleted and counted. • Cells were plated at desired density (100 μl/well) in complete media in a 96-well plate in triplicates. A column for Day “0” reading was also seeded. (18-20 hrs after initial plating and before addition of the inhibitors) • Plates were incubated at 37° C. and 5% CO2. Day 1 • 10 μl of MTT (5 mg/ml) were added to the column designated for Day “0”. It was mixed well and incubated at 37° C. and 5% CO2 for 3.5 hours. Cells were pelleted down at 4000 rpm for 10 minutes. • Media was aspirated out and 150 μl of DMSO were added to the cells and mixed by pipetting to dissolve the crystals • The plate was read at A560 nm and A640 nm. Day 2 • A series of dilutions of the inhibitors were initially made in 100% DMSO and further diluted in growth medium. • Cells were treated with either single agent of DMSO, compound M1, romidepsin, or a combination of compound M1 and romidepsin (HuT-78). […] Crystals were dissolved by repeated pipetting. • The plate was read at A560 nm and A640 nm. […]
(§1) Reference absorbance values were subtracted from test absorbance values. Day 0 values were subtracted from final day absorbance values for determining cell growth. % Cell growth inhibitions were calculated.

The subject of a further experiment is SK-OV-3 cell lines. Nature of the experiment: MTT cell growth inhibition, combination with talzoparib, SK-OV-3. To be noted: combined with talzoparib, 72 hrs. Here is the method: (§2) Assay 5: Combination of Compound M1 with Standard Agents in Different Cell Lines
(§3) Day 0 • The cells were pelleted and counted. • Cells were plated at desired density (100 μl/well) in complete media in a 96-well plate in triplicates. A column for Day “0” reading was also seeded. (18-20 hrs after initial plating and before addition of the inhibitors) • Plates were incubated at 37° C. and 5% CO2. Day 1 • 10 μl of MTT (5 mg/ml) were added to the column designated for Day “0”. It was mixed well and incubated at 37° C. and 5% CO2 for 3.5 h. Cells were pelleted down at 4000 rpm for 10 minutes. • Media was aspirated out and 150 μl of DMSO were added to the cells and mixed by pipetting to dissolve the crystals • The plate was read at A560 nm and A640 nm. Day 2 • A series of dilutions of the inhibitors were initially made in 100% DMSO and further diluted in growth medium. • Cells were treated with either single agent of DMSO, compound M1, talzoparib, and combination of compound M1 and talzoparib (OVCAr-3 and SK-OV-3). […]
(§4) The plate was read at A560 nm and A640 nm.
as §1

A further experiment deals with OVCAr-3 cell lines. Nature of the experiment: MTT cell growth inhibition, combination with talzoparib, OVCAR-3. The settings on record: combined with talzoparib, 72 hrs. Here is the method: as §2, §3, §4, §1
For the next experiment, the system named is THP-1 cell lines. Nature of the experiment: MTT cell growth inhibition, single agent or combination, THP-1. The settings on record: combined with azacytidine or ventoclax, 72 hrs. Here is the method:
Assay 4: Compound M1 as a Single Agent or in Combination with Azacytidine, or Venetoclax was Determined in the AML Lines: THP-1, U937, and MV-4-11.
Day 0 • The cells were pelleted and counted. • Cells were plated at desired density (100 μl/well) in complete media in a 96-well plate in triplicates. A column for Day “0” reading was also seeded (18-20 hrs after initial plating and before addition of the inhibitors) • Plates were incubated at 37° C. and 5% CO2. Day 1 • 10 μl of MTT (5 mg/ml) were added to the column designated for Day “0”. It was mixed well and incubated at 37° C. and 5% CO2 for 3.5 h. Cells were pelleted down at 4000 rpm for 10 minutes. • Media was aspirated out and 150 μl of DMSO were added to the cells and mixed by pipetting to dissolve the crystals • Plate was read at A560 nm and A640 nm. […] Crystals were dissolved by repeated pipetting. • The plate was read at A560 nm and A640 nm. […]
Reference absorbance values were subtracted from test absorbance values. Day 0 values were subtracted from final day absorbance values for determining cell growth. Percent cell growth inhibitions were calculated.

As for `CC[C@H](Nc1ncnc2[nH]c(O)nc12)c1oc2ccccc2c(=O)c1-c1cccc(F)c1` [Compound M1, (S)-3-(3-fluorophenyl)-2-(1-((8-hydroxy-9H-purin-6-yl)amino)propyl)-4H-chromen-4-one], the “cell growth inhibition in combination” value in the experiment with HuT-78 cell lines is “synergistic results”; with SK-OV-3 cell lines, “synergistic results”; in the experiment on OVCAr-3 cell lines, “synergistic results”; in the experiment on THP-1 cell lines, “synergistic activity”.
